Assay results from US20100062986A1, “METHOD TO TREAT BLOOD CELL DEPLETION” (ImmuneRegen Biosciences, Inc., priority 2006, published 2010).

Test system: mice exposed to a lethal dose of 60Co radiation
Test: Radilex treatment of mice after lethal 60Co radiation exposure (survival, blood counts)
Format: in vivo, mice (C57BL/6J)
Excerpt: One purpose of the study is to determine the effects of Radilex™ ([Sar^9, Met(02)^11]-Substance P) after exposure to a lethal dose of ^60Co radiation exposure. Another purpose of the study is to determine if intra-muscular injections of Radilex™ can be as effective as aerosol inhalation of Radilex™ at 8Gy ^60Co radiation level.
Blood draws (2 animals per group rotating every 5 days) for erythrocytes, leukocytes and platelets were taken to assess anemia, neutropenia and thrombocytopenia. Counts of erythrocytes, leukocytes and platelets were taken to assess anemia, neutropenia and thrombocytopenia and act as indicators of bone marrow damage and/or immune system destruction.
The mice received Radilex™ treatment within 2 hours of radiation exposure. The Radilex™ dosage was administered in a volume of 0.01 ml in a daily single treatment via IM injection into the hind limb muscle a single time, for the duration of the study (30 days), or until death.
The following regimens were tested on groups of 9-11 mice:
10 mM Radilex™ single intramuscular treatment
1 mM Radilex™ single intramuscular treatment
1 mM Radilex™ daily intramuscular treatment
75 uM Radilex™ single intramuscular treatment
75 uM Radilex™ daily intramuscular treatment
10 uM Radilex™ daily via nebulizer
50 uM Radilex™ daily via nebulizer
75 uM Radilex™ daily via nebulizer
100 uM Radilex™ daily via nebulizer […]

Substance: [Sar^9, Met(02)^11]-Substance P [Radilex™]
- Radioprotection: effects of lethal exposure (mice, lethal 60Co radiation, Radilex intramuscular or via nebulizer, first treatment within 2 hours of exposure): Reversed
- Neutropenia and anemia (surviving animals after 60Co radiation, white cell count and hematocrit): Reversed
